Assay results as given in ChEMBL document CHEMBL5465560, “Selectivity Literature for EUbOPEN Chemogenomic Library” (2024).
Values belong to the compound of their own block, whether it stands above or below them.

Experiments:
[1] = biological target: Tyrosine-protein kinase HCK (Homo sapiens) (UniProt P08631); test: Selectivity interaction (KinomeScan (DiscoverX)) EUB0001049a HCK; settings: at 1 µM
[2] = biological target: T1, Aurora kinase A (Homo sapiens) (UniProt O14965); test: Selectivity interaction (ActivX KiNativ screen (kinase selectivity in THP-1 cell lysates)) EUB0000639a STK6; type: subcellular; settings: lysate, at 0.01 µM
T1 sequence (whole entry): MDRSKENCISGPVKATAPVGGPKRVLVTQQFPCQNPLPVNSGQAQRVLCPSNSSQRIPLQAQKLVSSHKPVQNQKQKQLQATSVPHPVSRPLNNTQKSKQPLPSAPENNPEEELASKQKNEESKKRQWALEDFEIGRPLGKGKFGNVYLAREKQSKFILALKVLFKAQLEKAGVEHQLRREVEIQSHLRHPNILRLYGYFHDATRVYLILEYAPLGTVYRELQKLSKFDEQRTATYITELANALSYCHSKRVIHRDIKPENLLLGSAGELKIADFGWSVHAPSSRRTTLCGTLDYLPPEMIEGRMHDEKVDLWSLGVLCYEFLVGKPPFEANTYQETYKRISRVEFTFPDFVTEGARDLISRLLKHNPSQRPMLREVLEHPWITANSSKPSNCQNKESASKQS

[3] = test system: Tyrosine-protein kinase ABL1 (Homo sapiens), P00519 [H396P]; settings: at 10 µM
[4] = biological target: T2, Interleukin-1 receptor-associated kinase 4 (Homo sapiens) (UniProt Q9NWZ3); test: Selectivity interaction (KinomeScan (DiscoverX)) EUB0001079a IRAK4; settings: at 1 µM
T2 sequence (whole entry): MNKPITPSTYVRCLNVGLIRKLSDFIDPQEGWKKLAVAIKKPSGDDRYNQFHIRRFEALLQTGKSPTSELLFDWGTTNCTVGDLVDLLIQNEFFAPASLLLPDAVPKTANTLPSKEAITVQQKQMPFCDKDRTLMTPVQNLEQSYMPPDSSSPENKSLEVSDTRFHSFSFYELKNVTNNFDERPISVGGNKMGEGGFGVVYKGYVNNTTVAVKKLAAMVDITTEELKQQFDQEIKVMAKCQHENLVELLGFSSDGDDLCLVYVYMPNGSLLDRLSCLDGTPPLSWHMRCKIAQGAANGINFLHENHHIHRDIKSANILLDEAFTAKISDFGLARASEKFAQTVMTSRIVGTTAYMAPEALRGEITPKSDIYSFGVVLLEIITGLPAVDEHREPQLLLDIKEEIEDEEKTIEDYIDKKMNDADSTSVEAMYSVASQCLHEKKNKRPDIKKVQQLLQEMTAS

[5] = biological target: Mitogen-activated protein kinase 1 (Homo sapiens, UniProt P28482); test: Selectivity interaction (KinomeScan (DiscoverX)) EUB0000092b MAPK1; settings: at 10 µM
[6] = biological target: T3, Cyclin-dependent kinase-like 5 (Homo sapiens) (UniProt O76039); test: Selectivity interaction (KinomeScan (DiscoverX)) EUB0000655a CDKL5; settings: at 10 µM
T3 sequence (whole entry): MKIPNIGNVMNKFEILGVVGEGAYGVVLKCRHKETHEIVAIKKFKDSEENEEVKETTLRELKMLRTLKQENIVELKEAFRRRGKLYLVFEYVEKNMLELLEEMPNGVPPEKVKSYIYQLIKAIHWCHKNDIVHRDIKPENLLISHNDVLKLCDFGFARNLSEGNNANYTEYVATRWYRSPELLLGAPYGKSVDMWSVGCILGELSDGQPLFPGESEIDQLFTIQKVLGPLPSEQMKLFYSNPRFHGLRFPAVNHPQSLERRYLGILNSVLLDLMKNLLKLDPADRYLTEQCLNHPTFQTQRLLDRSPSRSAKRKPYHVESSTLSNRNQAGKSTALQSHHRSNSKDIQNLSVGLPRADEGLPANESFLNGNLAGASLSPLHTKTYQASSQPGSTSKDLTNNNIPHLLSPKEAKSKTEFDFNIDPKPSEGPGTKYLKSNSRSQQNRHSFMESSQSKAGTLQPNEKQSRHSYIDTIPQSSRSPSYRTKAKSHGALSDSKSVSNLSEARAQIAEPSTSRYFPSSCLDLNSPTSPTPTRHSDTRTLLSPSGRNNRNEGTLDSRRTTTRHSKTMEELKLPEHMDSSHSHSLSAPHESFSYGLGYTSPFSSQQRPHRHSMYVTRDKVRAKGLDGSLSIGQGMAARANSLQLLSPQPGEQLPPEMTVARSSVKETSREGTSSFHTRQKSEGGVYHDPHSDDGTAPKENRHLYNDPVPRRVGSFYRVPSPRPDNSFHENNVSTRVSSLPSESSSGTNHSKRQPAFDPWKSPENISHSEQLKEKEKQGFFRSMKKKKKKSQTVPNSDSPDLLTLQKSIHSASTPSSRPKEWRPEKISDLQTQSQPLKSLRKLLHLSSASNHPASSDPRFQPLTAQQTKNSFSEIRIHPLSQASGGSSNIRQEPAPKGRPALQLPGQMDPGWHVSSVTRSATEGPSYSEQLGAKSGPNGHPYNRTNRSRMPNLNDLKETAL

[7] = biological target: T4, Tyrosine-protein kinase ZAP-70 (Homo sapiens) (UniProt P43403); test: Selectivity interaction (ActivX KiNativ screen (ex vivo kinase selectivity in human PBMCs)) EUB0001619a ZAP70; type: cell-based; settings: PBMC, at 1 µM
T4 sequence (whole entry): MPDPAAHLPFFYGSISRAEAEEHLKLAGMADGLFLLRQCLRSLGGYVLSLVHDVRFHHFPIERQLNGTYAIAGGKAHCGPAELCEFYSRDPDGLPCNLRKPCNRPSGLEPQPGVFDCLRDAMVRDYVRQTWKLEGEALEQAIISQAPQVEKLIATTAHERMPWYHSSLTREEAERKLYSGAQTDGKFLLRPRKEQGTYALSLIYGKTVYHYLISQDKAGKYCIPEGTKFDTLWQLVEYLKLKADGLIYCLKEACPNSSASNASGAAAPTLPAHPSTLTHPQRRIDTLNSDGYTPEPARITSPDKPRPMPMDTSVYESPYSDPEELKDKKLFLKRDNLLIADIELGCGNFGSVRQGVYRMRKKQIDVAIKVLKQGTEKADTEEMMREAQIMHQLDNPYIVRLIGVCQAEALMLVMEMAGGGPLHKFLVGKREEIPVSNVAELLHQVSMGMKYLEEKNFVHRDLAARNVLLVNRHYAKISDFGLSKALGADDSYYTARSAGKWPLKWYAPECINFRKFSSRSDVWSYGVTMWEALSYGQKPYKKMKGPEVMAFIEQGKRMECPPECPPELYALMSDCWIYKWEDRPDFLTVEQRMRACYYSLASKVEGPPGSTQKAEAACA

Chain of Tyrosine-protein kinase HCK (Homo sapiens) (P08631 2-526 limits assumed): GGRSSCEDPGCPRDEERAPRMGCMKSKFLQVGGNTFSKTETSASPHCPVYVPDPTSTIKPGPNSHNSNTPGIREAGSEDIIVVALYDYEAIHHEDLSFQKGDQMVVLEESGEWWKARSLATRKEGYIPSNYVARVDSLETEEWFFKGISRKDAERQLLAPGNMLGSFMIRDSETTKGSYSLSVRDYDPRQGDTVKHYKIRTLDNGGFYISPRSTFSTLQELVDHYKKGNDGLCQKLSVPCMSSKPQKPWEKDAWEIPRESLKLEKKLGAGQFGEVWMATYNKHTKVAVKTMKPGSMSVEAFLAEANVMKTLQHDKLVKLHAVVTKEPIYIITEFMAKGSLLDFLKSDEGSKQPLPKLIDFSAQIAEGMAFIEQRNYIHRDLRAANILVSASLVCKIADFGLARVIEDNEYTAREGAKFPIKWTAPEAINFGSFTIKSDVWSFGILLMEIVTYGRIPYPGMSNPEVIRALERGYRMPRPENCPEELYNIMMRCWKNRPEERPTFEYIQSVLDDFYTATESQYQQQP
Chain of Mitogen-activated protein kinase 1 (P28482 whole entry): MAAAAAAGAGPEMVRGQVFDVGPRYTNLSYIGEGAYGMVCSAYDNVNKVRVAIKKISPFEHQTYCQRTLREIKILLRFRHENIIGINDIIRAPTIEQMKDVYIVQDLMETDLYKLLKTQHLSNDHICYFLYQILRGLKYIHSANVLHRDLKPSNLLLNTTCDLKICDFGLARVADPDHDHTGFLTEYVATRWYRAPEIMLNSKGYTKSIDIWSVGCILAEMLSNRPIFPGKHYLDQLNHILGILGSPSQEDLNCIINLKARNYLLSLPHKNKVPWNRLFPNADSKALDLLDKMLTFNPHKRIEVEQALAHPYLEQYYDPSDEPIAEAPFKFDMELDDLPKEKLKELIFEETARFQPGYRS

Compound: COc1cc(Nc2nc(C)cc(-c3cnn4nc(OC)ccc34)n2)cc(C(F)(F)F)c1
- % of control [1]: 100%

- % of inhibition [2]: 4.9%
Compound: CC[C@@H]1[C@H](F)C(=O)N[C@@H]1COc1nccc2cc(C(N)=O)c(OC)cc12 [ZIMLOVISERTIB]

- % of control [3]: 100%
Compound: CCN(CC)CCCCNc1ncc2cc(-c3cc(OC)cc(OC)c3)c(NC(=O)NC(C)(C)C)nc2n1

Compound: Nc1cnc(N2CCc3cc(S(=O)(=O)Nc4c(F)cc(Cl)cc4F)cc(N4CCCC4=O)c32)nc1 [TP-020n]
- % of control [4]: 100%

Compound: CCC(=O)N1CCN(c2ccc(-n3c(=O)ccc4cnc5ccc(-c6cnc7ccccc7c6)cc5c43)cc2C(F)(F)F)CC1
- % of control [5]: 100%

Compound: CN(C)CCOc1ccc(-c2nc(-c3ccncc3)c(-c3ccc4c(c3)CC/C4=N\O)[nH]2)cc1
- % of control [6]: 100%

Compound: N#Cc1cccc(-c2c[nH]c3ncnc(N4CCOCC4)c23)c1
- % of inhibition [7]: -3%
